Source: ChEMBL document CHEMBL3044741, “Synthesis of novel biologically active methylene derivatives of sydnones” (Med Chem Res, 2013)
Converted amounts (≈) assume the structure as drawn.

What was measured:
[1] = tested on: Staphylococcus aureus; test: Antibacterial activity against Staphylococcus aureus MTCC 96 after 24 hrs by broth dilution method; format: functional; details: MTCC 96, 24 h
[2] = tested on: Cytomegalovirus; test: Antiviral activity against Cytomegalovirus Davis in HEL cells assessed as reduction in plaque formation; format: functional, organism-based; details: Human betaherpesvirus 5, Davis
[3] = tested on: Staphylococcus aureus; test: Antibacterial activity against Staphylococcus aureus MTCC 96 at 250 ug/ml after 24 hrs by Kirby-Bauer method; format: functional; details: MTCC 96, 24 h, read-out: IZ
[4] = Cytotoxicity against human MT4 cells by MTT assay; format: cell-based
[5] = tested on: Cytomegalovirus; test: Antiviral activity against Cytomegalovirus AD-169 infected in HEL cells assessed as reduction in plaque formation; format: functional, organism-based; details: Human betaherpesvirus 5, AD-169, HEL
[6] = Selectivity index, ratio of CC50 for human MT4 cells to IC50 for HIV2 ROD; format: functional
[7] = Cytotoxicity against human HEL cells assessed as alteration in cell morphology; format: cell-based
[8] = Cytotoxicity against human HEL cells; format: cell-based
[9] = tested on: Human alphaherpesvirus 3; test: Antiviral activity against thymidine kinase-deficient Varicella-zoster virus infected in HEL cells assessed as reduction in plaque formation; format: functional, organism-based; details: Human alphaherpesvirus 3, HEL
[10] = tested on: Candida albicans; test: Antifungal activity against Candida albicans MTCC 227; format: functional
[11] = tested on: Escherichia coli; test: Antibacterial activity against Escherichia coli MTCC 443 after 24 hrs by broth dilution method; format: functional; details: MTCC 443, 24 h
[12] = tested on: Pseudomonas aeruginosa; test: Antibacterial activity against Pseudomonas aeruginosa MTCC 424 after 24 hrs by broth dilution method; format: functional; details: MTCC 424, 24 h
[13] = tested on: Aspergillus niger; test: Antifungal activity against Aspergillus niger MTCC 282; format: functional
[14] = tested on: Pseudomonas aeruginosa; test: Antibacterial activity against Pseudomonas aeruginosa MTCC 424 at 250 ug/ml after 24 hrs by Kirby-Bauer method; format: functional; details: MTCC 424, 24 h, read-out: IZ
[15] = Selectivity index, ratio of CC50 for human MT4 cells to IC50 for HIV1 3B; format: functional
[16] = tested on: Human immunodeficiency virus 1; test: Antiviral activity against HIV1 3B infected in MT4 cells assessed as inhibition of virus-induced cytopathogenicity by MTT assay; format: functional, organism-based; details: Human immunodeficiency virus 1, 3B
[17] = tested on: Aspergillus clavatus; test: Antifungal activity against Aspergillus clavatus MTCC 1323 at 250 ug/ml after 74 hrs by Kirby-Bauer method; format: functional; details: for zone of inhibition at 250 µg/mL: MTCC 1323, 74 h, read-out: IZ
[18] = tested on: Aspergillus clavatus; test: Antifungal activity against Aspergillus clavatus MTCC 1323; format: functional
[19] = tested on: Human alphaherpesvirus 3; test: Antiviral activity against Varicella-zoster virus Oka expressing thymidine kinase infected in HEL cells assessed as reduction in plaque formation; format: functional, organism-based; details: Human alphaherpesvirus 3, strain Oka vaccine
[20] = tested on: Candida albicans; test: Antifungal activity against Candida albicans MTCC 227 at 250 ug/ml after 74 hrs by Kirby-Bauer method; format: functional; details: MTCC 227, 74 h, read-out: IZ
[21] = tested on: Escherichia coli; test: Antibacterial activity against Escherichia coli MTCC 443 at 250 ug/ml after 24 hrs by Kirby-Bauer method; format: functional; details: MTCC 443, 24 h, read-out: IZ
[22] = tested on: Human immunodeficiency virus 2; test: Antiviral activity against HIV2 ROD infected in MT4 cells assessed as inhibition of virus-induced cytopathogenicity by MTT assay; format: functional, organism-based; details: Human immunodeficiency virus 2, ISOLATE ROD
[23] = tested on: Streptococcus pyogenes; test: Antibacterial activity against Streptococcus pyogenes MTCC 442 after 24 hrs by broth dilution method; format: functional; details: MTCC 442, 24 h
[24] = tested on: Aspergillus niger; test: Antifungal activity against Aspergillus niger MTCC 282 at 250 ug/ml after 74 hrs by Kirby-Bauer method; format: functional; details: MTCC 282, 74 h, read-out: IZ
[25] = tested on: Streptococcus pyogenes; test: Antibacterial activity against Streptococcus pyogenes MTCC 442 at 250 ug/ml after 24 hrs by Kirby-Bauer method; format: functional; details: MTCC 442, 24 h, read-out: IZ

Row | Compound | MIC [1] [µg/mL] | zone of inhibition at 250 µg/mL [3] [mm] | CC50 [4] [µg/mL] | Ratio CC50/IC50 [6] | MIC [10] [µg/mL] | MIC [11] [µg/mL] | MIC [12] [µg/mL] | MIC [13] [µg/mL] | zone of inhibition at 250 µg/mL [14] [mm] | Ratio CC50/IC50 [15] | IC50 [16] [µg/mL] | zone of inhibition at 250 µg/mL [17] [mm] | MIC [18] [µg/mL] | zone of inhibition at 250 µg/mL [20] [mm] | zone of inhibition at 250 µg/mL [21] [mm] | IC50 [22] [µg/mL] | MIC [23] [µg/mL] | zone of inhibition at 250 µg/mL [24] [mm] | zone of inhibition at 250 µg/mL [25] [mm] | other results
1 | [O-]c1on[n+](-c2ccc(Cc3ccc(-[n+]4noc([O-])c4CN4CCNCC4)cc3)cc2)c1CN1CCNCC1 | 200 (≈ 376 µM) | 18 | 14 (≈ 26.3 µM) | <1 | 1000 (≈ 1880 µM) | 62.5 (≈ 117 µM) | 100 (≈ 188 µM) | 250 (≈ 469 µM) | 21 | <1 | > 14 | 19 | 1000 (≈ 1880 µM) | 21 | 21 | > 14 | 500 (≈ 939 µM) | 23 | 17 | EC50 [2]: 20 µg/mL (≈ 37.6 µM); EC50 [5]: 11.7 µg/mL (≈ 22 µM); MCC [7]: 100 µg/mL; CC50 [8]: 20 µg/mL (≈ 37.6 µM); EC50 [9]: > 4 µg/mL; EC50 [19]: > 4 µg/mL
2 | COC1=CC(=O)C[C@@H](C)[C@]12Oc1c(Cl)c(OC)cc(OC)c1C2=O [GRISEOFULVIN] |  |  |  |  | 100 (≈ 283 µM) |  |  | 100 (≈ 283 µM) |  |  |  | 24 | 100 (≈ 283 µM) | 24 |  |  |  | 28 |  | 
3 | CC1(C)S[C@@H]2[C@H](NC(=O)[C@H](N)c3ccccc3)C(=O)N2[C@H]1C(=O)O [AMPICILLIN] | 250 (≈ 715 µM) | 18 |  |  |  | 100 (≈ 286 µM) | 100 (≈ 286 µM) |  | 20 |  |  |  |  |  | 20 |  | 100 (≈ 286 µM) |  | 19 | 
4 | [O-]c1c[n+](-c2ccc(Cc3ccc(-[n+]4cc([O-])on4)cc3)cc2)no1 |  |  |  |  |  |  |  |  |  |  |  |  |  |  |  |  |  |  |  | EC50 [2]: > 20 µg/mL; EC50 [5]: > 4 µg/mL; MCC [7]: ≥ 20 µg/mL; CC50 [8]: 33.3 µg/mL (≈ 99 µM); EC50 [9]: > 4 µg/mL; EC50 [19]: > 4 µg/mL
5 | Cc1cn([C@H]2C[C@H](N=[N+]=[N-])[C@@H](CO)O2)c(=O)[nH]c1=O [ZIDOVUDINE] |  |  | > 25 | >26731 |  |  |  |  |  | >11587 | 0.0022 (≈ 0.00823 µM) |  |  |  |  | 0.00094 (≈ 0.00352 µM) |  |  |  | 
6 | CN1CCN(Cc2c([O-])on[n+]2-c2ccc(Cc3ccc(-[n+]4noc([O-])c4CN4CCN(C)CC4)cc3)cc2)CC1 | 500 (≈ 892 µM) | 16 |  |  | 500 (≈ 892 µM) | 250 (≈ 446 µM) | 250 (≈ 446 µM) | 1000 (≈ 1780 µM) | 19 |  |  | 23 | 500 (≈ 892 µM) | 19 | 19 |  | 62.5 (≈ 111 µM) | 20 | 22 | 
7 | NYSTATIN |  |  |  |  | 100 |  |  | 100 |  |  |  |  | 100 |  |  |  |  |  |  | inhibition zone (IZ) [17]: 26 mm
8 | O=C(N[C@H](CO)[C@H](O)c1ccc([N+](=O)[O-])cc1)C(Cl)Cl [CHLORAMPHENICOL] | 50 (≈ 155 µM) | 21 |  |  |  | 50 (≈ 155 µM) | 50 (≈ 155 µM) |  | 21 |  |  |  |  |  | 23 |  | 50 (≈ 155 µM) |  | 20 | 
9 | O=c1[nH]cnc2c1ncn2[C@H]1CC[C@@H](CO)O1 [DIDANOSINE] |  |  | > 50 | >13 |  |  |  |  |  | >24 | 2.09 (≈ 8.85 µM) |  |  |  |  | 3.78 (≈ 16 µM) |  |  |  | 
10 | Cc1ccnc2c1NC(=O)c1cccnc1N2C1CC1 [NEVIRAPINE] |  |  | > 4 | <1 |  |  |  |  |  | >80 | 0.05 (≈ 0.188 µM) |  |  |  |  | > 4 |  |  |  | 
